Data set [1] is described as follows: Acute oral toxicity (LD50 p.o.). To be noted: rat, in vivo, rats, read-out: Acute oral toxicity (LD50,kgx10^-6/kg).
Data set [2] has as its system gastric secretion. Briefly: Effects on gastric secretion (pylorus-ligated rats). It counts as in vivo. To be noted: Rattus norvegicus, intraduodenal, 100 mg/kg intraduodenally, pylorus ligature, gastric juice collected after 7 hours, read-out: Rate of inhibition, Gastric secretion (%). The procedure:
One group of 10 rats of body weight of from 1.5x10^-1 to 1.8x10^-1 kg (150 to 180g) was subjected to ligature of the pylorus after 24-hours fasting, under ether-anaesthesia, and one of the compounds of the present invention or the reference compound was administered as a dispersion in an aqueous 1% CMC solution into the duodenum. Only an aqueous 1% CMC solution was administered into the duodenum of a control group of 10 rats. After 7 hours from closing the abdomen, the stomach was extirpated under ether-anaesthesia to collect the gastric juice that had accumulated in it. The inhibiting effect of each drug on gastric secretion was calculated by the following formula: [formula] wherein Amount of gastric juice of control group = A ml Amount of gastric juice of test group = B ml The results are also shown in Table 1.
(§1) Note: ^* The structure of the compounds of the invention is expressed by the formula: [drawing 8] **The structure of the reference compound is expressed by the formula: [drawing 9] **Experiments were carried out on rats and the rate of inhibition was obtained at a dose of 10^-4 kg/kg (100 mg/kg) orally or intraduodenally.

Data set [3] concerns Shay's ulcer. The data set is described as follows: Shay's ulcer. To be noted: Rattus norvegicus, intraduodenal; rats, 100 mg/kg intraduodenally, pylorus ligature, 18 hours, ulcer area of forestomach; read-out: Rate of inhibition, Shay's ulcer (%). It counts as in vivo. The procedure:
Two groups of rats of body weight of from 2x10^-1 to 2.5x10^-1 kg (200 to 250 g), each group consisting of 10 animals, were treated under ether-anaesthesia by ligature of the pylorus after 48 hour-fasting (during which water was taken ad lib.) and, just after the operation, an aqueous suspension of one of the compounds of the invention in a 1% solution of carboxymethylcellulose (hereinafter referred to as CMC) was administered intraduodenally to the rats in one group at a dose of 10^-4 kg/kg (100 mg/kg). The other group (control) was given an aqueous 1% solution of CMC intraduodenally. After keeping these animals for 18 hours without giving them any food and water, their stomachs were extirpated under ether anaesthesia and the area (m^2x10^-6) (mm ) of the ulcer generated on the forestomach part of the rats was determined under an anatomical microscope. The total area of the ulcers of one group was represented by an ulcer coefficient. The rate of inhibition of the occurrence of ulcers (%) was obtained by calculation according to the following formula: Rate of inhibition of the occurrence of ulcers (%)= 100 x (Ulcer coeff. of control qp) - (Ulcer coeff. of test qp) (ulcer coeff.of control gp)
as §1

Data set [4] has as its system Stress ulcer. Briefly: Stress ulcer (restriction in water). In kind it is in vivo. As to conditions: Rattus norvegicus, po; rats, 100 mg/kg orally, immersed in water at 23°C for 20 hours, length of erosion; read-out: Rate of inhibition, Stress ulcer (%). The procedure: One group of 10 rats of body weight of from 2x10^-1 to 2.5x10^-1kg (200 to 250 g) after oral administration of an aqueous suspension of the compound of the invention being tested in a 1% CMC solution at a dose of 10^-4 kg/kg (100 mg/kg) were kept in stress cages and immersed in water at a temperature of 23°C to the depth of their thorax for 20 hours to give a stress of restriction in water. Another group of 10 rats of the same strain (a control group) were also treated with the same stress, but after administration of an aqueous 1% CMC solution.
Just after removing the rats from the water, they were clubbed to death and their stomachs were extirpated. Then, about 1.5x10^-5m^3 (15 ml) of an aqueous 1% formaldehyde solution was injected into each stomach. After maintaining the formaldehyde solution in the stomachs for 10 minutes to enable the solution to contact to the inner stomach wall, each stomach was cut open along the greater curvature to examine the length of erosion (in 10" m (mm)) generated on the mucosa of the glandular stomach region under an anatomical microscope. The sum of the length of erosion for rats of one group was represented by the ulcer coefficient. The rate of inhibition of the occurrence of the ulcer by each compound was obtained by the same method as in 1-1), the results being shown also in Table 1.
as §1

For data set [5], the system named is Aspirin-induced ulcer. The data set is described as follows: Aspirin-induced ulcer. In kind it is in vivo. To be noted: Rattus norvegicus; rats, 100 mg/kg intraduodenally, aspirin 100 mg/kg orally, 7 hours, length of erosion; read-out: Rate of inhibition, Aspirin-ulcer (%). As to the method:
One group of 10 rats of body weight of from 2x10^-1 to 2.5x10^-1 kg (200 to 250 g) was subjected to laparotomy under ether-anaesthesia, after 24 hour-fasting with ad lib. taking water, to have ligature of their pylorus (according to Okabe et al., 1974). Just after the ligature, an aqueous suspension of one of the compounds of the invention in a 1% CMC solution was intraduodenally administered to the rats at a dose of 10^-4 kg/kg (100 mg/kg). After closing the abdomen, an aqueous dispersion of aspirin in a 1% CMC solution was orally administered at a dose of 10^-4 kg/kg (100 mg/kg). After 7 hours of the aspirin administration, the stomach was extirpated under ether-anaesthesia, and the length (in 10^-3m (mm)) of erosions generated on the mucosa of the glandular stomach region was measured. The sum of the length of erosion on rats of one group was represented by the ulcer coefficient. The same procedures were carried out on another group of 10 rats of the same strain (a control group) except that an aqueous 1% CMC solution was administered instead of the aqueous dispersion of one of the compounds of the present invention. The rate of inhibition of the occurrence of ulcers was obtained by calculation as in 1-2), the results being also shown in Table 1.
as §1

Structures are written as SMILES.

In the case of `CN=C(NC#N)NCCCCn1nc(-c2ccccc2)ccc1=O` [Compound No. 44, N-cyano-N'-[4-(3-oxo-6-phenyl-2-pyridazinyl)butyl]-N"-methylguanidine], the LD50 in data set [1] is over 5000 mg/kg. Further, the inhibition in vivo at 100 mg/kg in data set [2] came to 77.6%; in data set [3], 97.8%; in data set [4], 71.2%; in data set [5] it was 97.5%.

Consider `CCN=C(NC#N)NCCCn1nc(-c2ccccc2)ccc1=O` [Compound No. 48, N-cyano-N'-[3-(3-oxo-6-phenyl-2-pyridazinyl)propyl]-N"-ethylguanidine], for which the LD50 in data set [1] was over 5000 mg/kg. Further, the inhibition in vivo at 100 mg/kg in data set [2] came to 51.9%; in data set [3], 76.4%; in data set [4], 70.5%; in data set [5], 93.8%.

Consider `CCN=C(NC#N)NCCCCn1nc(-c2ccccc2)ccc1=O` [Compound No. 50, N-cyano-N'-[4-(3-oxo-6-phenyl-2-pyridazinyl)butyl]-N"-ethylguanidine], for which the LD50 in data set [1] was over 5000 mg/kg. Moreover, the inhibition in vivo at 100 mg/kg in data set [2] was 59.2%; in data set [3], 73.4%; in data set [4], 77.2%; in data set [5], 86.2%.

For `CCN=C(NC#N)NCCCCCn1nc(-c2ccccc2)ccc1=O` [Compound No. 53, N-cyano-N'-[5-(3-oxo-6-phenyl-2-pyridazinyl)pentyl]-N"-ethylguanidine], the LD50 in data set [1] is over 5000 mg/kg. The inhibition in vivo at 100 mg/kg in data set [2] came out at 68.5%; in data set [3], 93.2%; in data set [4] it was 79%; in data set [5] it was 90.6%.

Turning to `CN=C(NC#N)NCCCCn1nc(-c2ccc(Cl)cc2)ccc1=O` [Compound No. 59, N-cyano-N'-[4-{6-(4-chlorophenyl)-3-oxo-2-pyridazinyl}butyl]-N"- methylguanidine], the LD50 in data set [1] is 4800 mg/kg. The inhibition in vivo at 100 mg/kg was 63.1% in data set [2], 61.5% in data set [3], 72.1% in data set [4] and 89.5% in data set [5].

With `CN=C(NC#N)NCCCCn1nc(-c2ccc(C)cc2)ccc1=O` [Compound No. 65, N-cyano-N'-[4-{6-(4-methylphenyl)-3-oxo-2-pyridazinyl}butyl]-N"- methylguanidine], the LD50 in data set [1] is over 5000 mg/kg. For the same compound, the inhibition in vivo at 100 mg/kg in data set [2] worked out at 58.5%; in data set [3], 70.3%; in data set [4], 70.5%; in data set [5], 91.4%.

`CN=C(NC#N)NCCCCn1nc(-c2ccccc2)cc(C)c1=O` [Compound No. 81, N-cyano-N'-[4-(4-methyl-3-oxo-6-phenyl-2-pyridazinyl)butyl]-N"- methylguanidine]: the LD50 in data set [1] is over 5000 mg/kg. The inhibition in vivo at 100 mg/kg stood at 54.2% in data set [2], 72.4% in data set [3], 63.4% in data set [4] and 90.8% in data set [5].

Take `CN=C(NC#N)NCCSCn1nc(-c2ccccc2)ccc1=O` [Compound No. 138, N-cyano-N'-[2-{(3-oxo-6-phenyl-2-pyridazinyl)methylthio}ethyl]-N"-methylguanidine]: in data set [1], the LD50 came to 4800 mg/kg. In addition, the inhibition in vivo at 100 mg/kg in data set [2] was found to be 70.2%; in data set [3], 88.3%; in data set [4], 68.2%; in data set [5], 90.2%.

(Values after patent publication EP0030835A1, “Derivatives of 2-substituted-6-phenyl-3(2H)pyridazinone, their production and pharmaceutical compositions containing them” (MORISHITA PHARMACEUTICAL CO. LTD., priority 1979, dated 1981).)
